Biological target: GDP-bound KRAS protein (aa 1-169), containing both G12C and C118A amino acid substitutions (Homo sapiens, UniProt P01116, C118A/G12C)
Test: Coupled nucleotide exchange assay (SOS-mediated, AlphaScreen)
Format: biochemical
Conditions: for Coupled exchange IC50 (5 min) / IC50: 5 min compound pre-incubation; for IC50: read-out: Coupled exchange IC50 (5 min)

GDP-bound KRAS protein (aa 1-169), containing both G12C and C118A amino acid substitutions, sequence (P01116 1-169 isoform P01116-2 G12C/C118A): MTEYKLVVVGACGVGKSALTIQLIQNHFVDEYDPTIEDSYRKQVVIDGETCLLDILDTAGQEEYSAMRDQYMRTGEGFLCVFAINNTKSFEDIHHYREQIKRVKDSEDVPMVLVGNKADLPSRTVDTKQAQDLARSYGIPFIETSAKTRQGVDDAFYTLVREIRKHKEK

SMILES	Coupled exchange IC50 (5 min)	also measured
C=CC(=O)N1CCN(c2nc(=O)n(-c3c(CC)cccc3CC)c3nc(N4CC[C@H](OC)C4)c(Cl)cc23)[C@@H](C)C1 [Example 66-22, 6-chloro-1-(2,6-diethylphenyl)-7-((3S)-3-methoxy-1-pyrrolidinyl)-4-((2S)-2-methyl-4-(2-propenoyl)-1-piperazinyl)pyrido[2,3-d]pyrimidin-2(1H)-one]	40.7 | nda μM	–
C=CC(=O)N1CCN(c2nc(=O)n(-c3c(CC)cccc3CC)c3nc(N4CCC[C@@H]4C#N)c(Cl)cc23)[C@@H](C)C1 [Example 66-23, (2R)-1-(6-chloro-1-(2,6-diethylphenyl)-4-((2S)-2-methyl-4-(2-propenoyl)-1-piperazinyl)-2-oxo-1,2-dihydropyrido[2,3-d]pyrimidin-7-yl)-2-pyrrolidinecarbonitrile]	160 | nda μM	–
C=CC(=O)N1CCN(c2nc(=O)n(-c3c(CC)cccc3CC)c3nc(N4CCOC(C5CC5)C4)c(Cl)cc23)[C@@H](C)C1 (stereo partly drawn) [Example 66-25, 6-chloro-7-(2-cyclopropyl-4-morpholinyl)-1-(2,6-diethylphenyl)-4-((2S)-2-methyl-4-(2-propenoyl)-1-piperazinyl)pyrido[2,3-d]pyrimidin-2(1H)-one]	95 | nda μM	–
C=CC(=O)N1CCN(c2nc(=O)n(-c3c(CC)cccc3CC)c3nc(N4CCC[C@H](C)C4)c(Cl)cc23)[C@@H](C)C1 [Example 66-28, 6-chloro-1-(2,6-diethylphenyl)-7-((3S)-3-methyl-1-piperindinyl)-4-((2S)-2-methyl-4-(2-propenoyl)-1-piperazinyl)pyrido[2,3-d]pyrimidin-2(1H)-one]	16.6 | nda μM	–
C=CC(=O)N1CCN(c2nc(=O)n(-c3c(CC)cccc3CC)c3nc(N4CCC(C)(C)CC4)c(Cl)cc23)[C@@H](C)C1 [Example 66-29, 6-chloro-1-(2,6-diethylphenyl)-7-(4,4-dimethyl-1-piperindinyl)-4-((2S)-2-methyl-4-(2-propenoyl)-1-piperazinyl)pyrido[2,3-d]pyrimidin-2(1H)-one]	25.3 | nda μM	–
C=CC(=O)N1CCN(c2nc(=O)n(-c3c(CC)cccc3CC)c3nc(N4CCOC[C@@H]4C)c(Cl)cc23)[C@@H](C)C1 [Example 66-30, 6-chloro-1-(2,6-diethylphenyl)-7-((3S)-3-methyl-4-morpholinyl)-4-((2S)-2-methyl-4-(2-propenoyl)-1-piperazinyl)pyrido[2,3-d]pyrimidin-2(1H)-one]	16.05 | nda μM	–
C=CC(=O)N1CCN(c2nc(=O)n(-c3c(CC)cccc3CC)c3nc(N4C[C@@H]5C[C@H]4CO5)c(Cl)cc23)[C@@H](C)C1 [Example 66-31, 6-chloro-1-(2,6-diethylphenyl)-4-((2S)-2-methyl-4-(2-propenoyl)-1-piperazinyl)-7-((1S,4S)-2-oxa-5-azabicyclo[2.2.1]heptan-5-yl)pyrido[2,3-d]pyrimidin-2(1H)-one]	84.25 | nda μM	–
C=CC(=O)N1CCN(c2nc(=O)n(-c3c(CC)cccc3CC)c3nc(N4CCOC[C@H]4C)c(Cl)cc23)[C@@H](C)C1 [Example 66-33, 6-chloro-1-(2,6-diethylphenyl)-7-((3R)-3-methyl-4-morpholinyl)-4-((2S)-2-methyl-4-(2-propenoyl)-1-piperazinyl)pyrido[2,3-d]pyrimidin-2(1H)-one]	15.9 | nda μM	–
C=CC(=O)N1CCN(c2nc(=O)n(-c3ccccc3C(C)C)c3nc(-c4ccncc4F)c(Cl)cc23)[C@@H](C)C1 [Example 67-1, 6-Chloro-7-(3-fluoro-4-pyridinyl)-4-((2S)-2-methyl-4-(2-propenoyl)-1-piperazinyl)-1-(2-(2-propanyl)phenyl)pyrido[2,3-d]pyrimidin-2(1H)-one]	3.51 | nda μM	–
C=CC(=O)N1CCN(c2nc(=O)n(-c3ccccc3C(C)C)c3nc(-c4cc(C(F)(F)F)nn4C)c(Cl)cc23)[C@@H](C)C1 [Example 67-2, 6-chloro-4-((2S)-2-methyl-4-(2-propenoyl)-1-piperazinyl)-7-(1-methyl-3-(trifluoromethyl)-1H-pyrazol-5-yl)-1-(2-(2-propanyl)phenyl)pyrido[2,3-d]pyrimidin-2(1H)-one]	6.45 | nda μM	–
C=CC(=O)N1CCN(c2nc(=O)n(-c3ccccc3C(C)C)c3nc(-c4c(C)cnn4C)c(Cl)cc23)[C@@H](C)C1 [Example 67-3, 6-chloro-7-(1,4-dimethyl-1H-pyrazol-5-yl)-4-((2S)-2-methyl-4-(2-propenoyl)-1-piperazinyl)-1-(2-(2-propanyl)phenyl)pyrido[2,3-d]pyrimidin-2(1H)-one]	2.87 | nda μM	–
C=CC(=O)N1CCN(c2nc(=O)n(-c3ccccc3C(C)C)c3nc(N4CCCCC4C)c(Cl)cc23)[C@@H](C)C1 (stereo partly drawn) [Example 69-5]	5.64 | nda μM	–
C=CC(=O)N1CCN(c2nc(=O)n(-c3ccccc3C(C)C)c3nc(N(C)C(C)C)c(Cl)cc23)[C@@H](C)C1 [Example 69-6, 6-chloro-7-(methyl(2-propanyl)amino)-4-((2S)-2-methyl-4-(2-propenoyl)-1-piperazinyl)-1-(2-(2-propanyl)phenyl)pyrido[2,3-d]pyrimidin-2(1H)-one]	13.7 | nda μM	–
C=CC(=O)N1CCN(c2nc(=O)n(-c3ccccc3C(C)C)c3nc(N(C)CCO)c(Cl)cc23)[C@@H](C)C1 [Example 69-7, 6-chloro-7-((2-hydroxyethyl)(methyl)amino)-4-((2S)-2-methyl-4-(2-propenoyl)-1-piperazinyl)-1-(2-(2-propanyl)phenyl)pyrido[2,3-d]pyrimidin-2(1H)-one]	48.5 | nda μM	–
C=CC(=O)N1CCN(c2nc(=O)n(-c3c(C)cccc3C(C)C)c3nc(-c4nc(N)ccc4Cl)c(F)cc23)[C@@H](C)C1 [Example 71-1, 7-(6-Amino-3-chloro-2-pyridinyl)-6-fluoro-1-(2-methyl-6-(2-propanyl)phenyl)-4-((2S)-2-methyl-4-(2-propenoyl)-1-piperazinyl)pyrido[2,3-d]pyrimidin-2(1H)-one]	1.12 | nda μM	–
C=CC(=O)N1CCN(c2nc(=O)c(-c3ccccc3C)c3cc(-c4ccccc4Br)c(C)nn23)CC1 [Example 81-1, 3-(2-Bromophenyl)-2-methyl-5-(2-methylphenyl)-8-(4-(2-propenoyl)-1-piperazinyl)-6H-pyrimido[1,6-b]pyridazin-6-one]	172 | nda μM	–
C=CC(=O)N1CCN(c2nc(=O)c(-c3ccccc3C(C)C)c3cc(-c4ccccc4F)c(C)nn23)CC1 [Example 81-2, 3-(2-fluorophenyl)-2-methyl-5-(2-(2-propanyl)phenyl)-8-(4-(2-propenoyl)-1-piperazinyl)-6H-pyrimido[1,6-b]pyridazin-6-one]	14.1 | nda μM	–
C=CC(=O)N1CCN(c2nc(=O)c(-c3ccccc3C(C)C)c3cc(-c4ccccc4F)c(C)nn23)[C@@H](C)C1 [Example 81-3, 3-(2-fluorophenyl)-2-methyl-8-((2S)-2-methyl-4-(2-propenoyl)-1-piperazinyl)-5-(2-(2-propanyl)phenyl)-6H-pyrimido[1,6-b]pyridazin-6-one]	2.87 | nda μM	–
C=CC(=O)N1CCN(c2nc(CO)c(-c3ccccc3C(C)C)c3nc(-c4ccccc4F)c(Cl)cc23)CC1 [Example 85-1]	–	IC50: 6.34 µM
C=CC(=O)N1C[C@@H](C)N(c2nc(=O)n(-c3c(C(C)C)ncnc3C(C)C)c3nc(-c4ccccc4F)c(Cl)cc23)[C@H](C)C1 [Example 87-3]	17.3 | nda μM	–
C=CC(=O)N1CCN(c2nc(=O)n(-c3ccccc3C(F)(F)F)c3cc(-c4ccccc4F)c(Cl)cc23)[C@@H](C)C1 [Example 93, 6-Chloro-7-(2-fluorophenyl)-4-((2S)-2-methyl-4-(2-propenoyl)-1-piperazinyl)-1-(2-(trifluoromethyl)phenyl)-2(1H)-quinazolinone]	1.59 | nda μM	–
C=CC(=O)N1CCN(c2nc(=O)n(-c3c(CC)cccc3CC)c3nc(-c4ccccc4F)c(Cl)cc23)[C@@H](C(=O)O)C1 [Example 96, (2R)-1-(6-Chloro-1-(2,6-diethylphenyl)-7-(2-fluorophenyl)-2-oxo-1,2-dihydropyrido[2,3-d]pyrimidin-4-yl)-4-(2-propenoyl)-2-piperazinecarboxylic acid]	4.85 | nda μM	–
C=CC(=O)N1CCN(c2nc(=O)n(-c3ccccc3C(C)C)c3nc(-c4ccc[nH]c4=O)c(Cl)cc23)[C@@H](C)C1 [Example 97, 6-Chloro-4-((2S)-2-methyl-4-(2-propenoyl)-1-piperazinyl)-7-(2-oxo-1,2-dihydro-3-pyridinyl)-1-(2-(2-propanyl)phenyl)pyrido[2,3-d]pyrimidin-(1H)-one]	–	IC50: 39 µM
C=CC(=O)N1CCN(c2nc(=O)n(-c3ccccc3)c3nc(-c4c(O)cccc4F)c(Cl)cc23)[C@@H](C)C1 [Example 100, 6-Chloro-7-(2-fluoro-6-hydroxyphenyl)-4-((2S)-2-methyl-4-(2-propenoyl)-1-piperazinyl)-1-phenylpyrido[2,3-d]pyrimidin-2(1H)-one]	3.45 | nda μM	–
C=CC(=O)N1CCN(c2nc(=O)n(-c3c(CC)cccc3CC)c3nc(-c4c(O)cccc4F)ccc23)[C@@H](C)C1 [Example 107, 1-(2,6-Diethylphenyl)-7-(2-fluoro-6-hydroxyphenyl)-4-((2S)-2-methyl-4-(2-propenoyl)-1-piperazinyl)pyrido[2,3-d]pyrimidin-2(1H)-one]	–	Coupled exchange IC50 (2 h) (2 h compound pre-incubation): nda | 3.14 μM
C=CC(=O)N1CCN(c2nc(=O)n(-c3ccccc3C(C)C)c3nc(-c4ccccc4F)c(CC)nc23)[C@@H](C)C1 [Example 108, 6-Ethyl-7-(2-fluorophenyl)-4-((2S)-2-methyl-4-(2-propenoyl)-1-piperazinyl)-1-(2-(2-propanyl)phenyl)-2(1H)-pteridinone]	1 | nda μM	–
C=CC(=O)N1CCN(c2nc(=O)n(-c3ccccc3C(C)C)c3nc(-c4ccccc4F)c(OC)nc23)[C@@H](C)C1 [Example 109, 7-(2-Fluorophenyl)-6-methoxy-4-((2S)-2-methyl-4-(2-propenoyl)-1-piperazinyl)-1-(2-(2-propanyl)phenyl)-2(1H)-pteridinone]	1.32 | nda μM	–

— patent US11090304B2 (Amgen Inc., priority 2018, dated 2021)
